According to patent US10899747B2, “Biaryl piperidine amide compounds and methods of use thereof” (Athenex, Inc., priority 2017, dated 2021):

The compounds below were run on NFAT (assay: TCR-NFAT (luciferase-based reporter assay)). Conditions: Homo sapiens; 50% inhibition concentration class.
Format: cell-based
Experimental: Jurkat T cells are transiently transfected with a DNA plasmid encoding Firefly luciferase under the transcriptional control of an appropriate regulatory element that may include multimerized NFAT, AP-1, NFκB, or CREB binding sites. Cells are co-transfected with a DNA plasmid encoding Renilla luciferase under the transcriptional control of a constitutive regulatory element (e.g., HSV-TK promoter). 24 hours following transfection, cells are collected and re-seeded in 96-well plates at a final density of 1.0×10^6 cells/ml in 150 ul assay medium. Test compounds may be included at a final concentration of ≤20 uM and generally pre-incubated with cells for 30 minutes prior to stimulation. An appropriate stimulus is added, including but not limited to, a) phorbol myristate acetate (PMA) and ionomycin, or b) stimulatory antibodies to the TCR complex (e.g., anti-CD3ε) and CD28. Cell cultures are stimulated for 4-6 hours in a humidified incubator (37 degrees C./5% CO2). Cells are than lysed and the level of Firefly luciferase and Renilla Luciferase activity is determined using a standard assay (e.g., Promega's Dual Luciferase Reporter Assay System) and plate-reading luminometer. The ratio obtained by dividing activation induced Firefly luciferase activity by the constitutive Renilla luciferase activity is calculated and used as a quantitative measurement of cell activation.
Jurkat T cells were transiently transfected with a DNA plasmid encoding Firefly luciferase under the transcriptional control of an appropriate regulatory element that may include multimerized NFAT, AP-1, NFκB, or CREB binding sites. Cells were co-transfected with a DNA plasmid encoding Renilla luciferase under the transcriptional control of a constitutive regulatory element (e.g., HSV-TK promoter). 24 hours following transfection, cells were collected and re-seeded in 96-well plates at a final density of 1.0×10^6 cells/ml in 150 ul assay medium. Compound 413 was included at a final concentration of ≤20 uM and pre-incubated with cells for 30 minutes prior to stimulation. Mitogens PMA and ionomycin were added. Cell cultures were stimulated for 4-6 hours in a humidified incubator (37° C./5% CO2). Cells were then lysed and the level of Firefly luciferase and Renilla Luciferase activity was determined using a standard assay (e.g., Promega's Dual Luciferase Reporter Assay System) and plate-reading luminometer. The ratio obtained by dividing activation induced Firefly luciferase activity by the constitutive Renilla luciferase activity was calculated and used as a quantitative measurement of cell activation.

Row | SMILES | IC50 [µM]
1 | O=C(COc1ccccc1-c1ccccc1)N1CCC(CCc2ccc(O)cc2)CC1 [Compound 100] | 1 to 10
2 | COC(=O)c1ccc(CCC2CCN(C(=O)COc3ccccc3-c3ccccc3)CC2)cc1 [Compound 101] | < 1
3 | O=C(NCc1ccccn1)c1ccc(CCC2CCN(C(=O)COc3ccccc3-c3ccccc3)CC2)cc1 [Compound 102] | 1 to 10
4 | O=C(NCc1cccnc1)c1ccc(CCC2CCN(C(=O)COc3ccccc3-c3ccccc3)CC2)cc1 [Compound 103] | 1 to 10
5 | O=C(NCc1ccncc1)c1ccc(CCC2CCN(C(=O)COc3ccccc3-c3ccccc3)CC2)cc1 [Compound 104] | 1 to 10
6 | O=C(COc1ccccc1-c1ccccc1)N1CCC(CCc2ccc3c(c2)OCO3)CC1 [Compound 105] | 1 to 10
7 | O=C(COc1ccccc1-c1ccccc1)N1CCC(CCc2cc(F)cc(F)c2)CC1 [Compound 106] | 1 to 10
8 | O=C(COc1ccccc1-c1ccccc1)N1CCC(CCc2ccc(F)cc2)CC1 [Compound 107] | 10 to 50
9 | COc1ccc(CCC2CCN(C(=O)COc3ccccc3-c3ccccc3)CC2)cc1 [Compound 108] | 1 to 10
10 | COc1ccc(CCC2CCN(C(=O)COc3ccccc3-c3ccccc3)CC2)cc1OC [Compound 109] | 1 to 10
11 | O=C(O)c1ccc(CCC2CCN(C(=O)COc3ccccc3-c3ccccc3)CC2)cc1 [Compound 110] | 10 to 50
12 | O=C(/C=C/c1cc2c(cc1-c1ccccc1)OCO2)N1CCC(CCc2ccc(O)cc2)CC1 [Compound 111] | 1 to 10
13 | O=C(COc1ccccc1-c1ccccc1)N1CCC(CCc2ccc(N3CCOCC3)cc2)CC1 [Compound 112] | 1 to 10
14 | Cc1ccc(F)cc1CCC1CCN(C(=O)COc2ccccc2-c2ccccc2)CC1 [Compound 113] | 1 to 10
15 | O=C(COc1ccccc1-c1ccccc1)N1CCC(CCc2ccc3c(c2)OCCO3)CC1 [Compound 114] | 1 to 10
16 | O=C(COc1ccccc1-c1ccccc1)N1CCC(CCc2ccc(OC(F)(F)F)cc2)CC1 [Compound 115] | 1 to 10
17 | Cc1cc(OC(F)(F)F)ccc1CCC1CCN(C(=O)COc2ccccc2-c2ccccc2)CC1 [Compound 116] | 10 to 50
18 | O=C(COc1ccccc1-c1ccccc1)N1CCC(CCc2ccccc2)CC1 [Compound 118] | 10 to 50
19 | COc1ccc(CCC2CCN(C(=O)COc3ccccc3-c3ccccc3)CC2)c(OC)c1 [Compound 119] | 1 to 10

Row | SMILES | IC50 [µM]
20 | O=C(COc1ccccc1-c1ccccc1)N1CCC(CCc2ccc(F)c(C(F)(F)F)c2)CC1 [Compound 121] | 10 to 50
21 | O=C(COc1ccccc1-c1ccccc1)N1CCC(CCc2ccccc2OC(F)(F)F)CC1 [Compound 122] | 10 to 50
22 | O=C(COc1ccccc1-c1ccccc1)N1CCC(CCc2cc(F)ccc2F)CC1 [Compound 123] | 10 to 50
23 | O=C(COc1ccccc1-c1ccccc1)N1CCC(CCc2cc(F)c(O)c(F)c2)CC1 [Compound 124] | 10 to 50
24 | COc1ccc(CO)cc1CCC1CCN(C(=O)COc2ccccc2-c2ccccc2)CC1 [Compound 125] | 10 to 50
25 | O=C(COc1ccccc1-c1ccccc1)N1CCC(CCc2cccc(C(F)(F)F)c2)CC1 [Compound 127] | 10 to 50
26 | COc1cccc(CCC2CCN(C(=O)COc3ccccc3-c3ccccc3)CC2)c1 [Compound 128] | 10 to 50
27 | CCOc1ccc(CCC2CCN(C(=O)COc3ccccc3-c3ccccc3)CC2)cc1 [Compound 129] | 10 to 50
28 | O=C(COc1ccccc1-c1ccccc1)N1CCC(CCc2cccc(F)c2)CC1 [Compound 130] | 10 to 50
29 | O=C(COc1ccccc1-c1ccccc1)N1CCC(CCc2cccc(CO)c2)CC1 [Compound 131] | 10 to 50
30 | O=C(CCc1cc2c(cc1-c1ccccc1)OCO2)N1CCC(CCc2ccc(O)cc2)CC1 [Compound 132] | 10 to 50
31 | COc1ccc(CCC2CCN(C(=O)COc3c(F)cccc3-c3ccccc3)CC2)cc1OC [Compound 133] | 10 to 50
32 | COc1ccc(CCC2CCN(C(=O)COc3c(F)cccc3-c3ccccc3)CC2)cc1 [Compound 134] | 10 to 50
33 | O=C(COc1c(F)cccc1-c1ccccc1)N1CCC(CCc2cc(F)cc(F)c2)CC1 [Compound 135] | 10 to 50
34 | O=C(COc1c(F)cccc1-c1ccccc1)N1CCC(CCc2ccc(F)cc2)CC1 [Compound 136] | 10 to 50
35 | O=C(COc1cc(F)c(F)cc1-c1ccccc1)N1CCC(CCc2ccc(F)cc2)CC1 [Compound 137] | 10 to 50
36 | COc1ccc(CCC2CCN(C(=O)COc3c(C)cccc3-c3ccccc3)CC2)cc1OC [Compound 138] | 1 to 10
37 | COc1ccc(CCC2CCN(C(=O)COc3c(C)cccc3-c3ccccc3)CC2)cc1 [Compound 139] | 10 to 50
38 | Cc1cccc(-c2ccccc2)c1OCC(=O)N1CCC(CCc2ccc(F)cc2)CC1 [Compound 140] | 10 to 50

Results, then the compound that gave them:

Row | IC50 [µM] | SMILES
39 | 10 to 50 | COc1ccc(CCC2CCN(C(=O)COc3cccnc3-c3ccccc3)CC2)cc1OC [Compound 141]
40 | 1 to 10 | COc1ccc(CCC2CCN(C(=O)COc3cc(F)c(F)cc3-c3ccccc3)CC2)cc1OC [Compound 142]
41 | 10 to 50 | O=C(COc1cc(F)c(F)cc1-c1ccccc1)N1CCC(CCc2cc(F)cc(F)c2)CC1 [Compound 143]
42 | 1 to 10 | COc1ccc(CCC2CCN(C(=O)C(C)Oc3ccccc3-c3ccccc3)CC2)cc1OC (stereo not shown) [Compound 144]
43 | 1 to 10 | CCCC(Oc1ccccc1-c1ccccc1)C(=O)N1CCC(CCc2ccc(OC)c(OC)c2)CC1 (stereo not shown) [Compound 145]
44 | 1 to 10 | COCc1ccc(CCC2CCN(C(=O)COc3ccccc3-c3ccccc3)CC2)cc1 [Compound 146]
45 | 1 to 10 | CN(C)C(=O)c1ccc(CCC2CCN(C(=O)COc3ccccc3-c3ccccc3)CC2)cc1 [Compound 147]
46 | 1 to 10 | CC(C)NC(=O)c1ccc(CCC2CCN(C(=O)COc3ccccc3-c3ccccc3)CC2)cc1 [Compound 148]
47 | 1 to 10 | CC(C)(C)NC(=O)c1ccc(CCC2CCN(C(=O)COc3ccccc3-c3ccccc3)CC2)cc1 [Compound 149]
48 | 10 to 50 | O=C(COc1cc(OC(F)(F)F)ccc1-c1ccccc1)N1CCC(CCc2ccc3c(c2)OCO3)CC1 [Compound 150]
49 | 10 to 50 | O=C(COc1cc(F)ccc1-c1ccccc1)N1CCC(CCc2ccc3c(c2)OCO3)CC1 [Compound 151]
50 | 10 to 50 | O=C(COc1ccc(F)cc1-c1ccccc1)N1CCC(CCc2ccc3c(c2)OCO3)CC1 [Compound 152]
51 | < 1 | O=C(COc1ccccc1-c1ccccc1O)N1CCC(CCc2ccc3c(c2)OCO3)CC1 [Compound 169]

The compounds below were run on IL-2 (assay: PHA-IL2 (cell activation and cytokine analysis)). Conditions: 50% inhibition concentration class.
Format: cell-based
How it was run: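 Cells were seeded in 96-well plates at 1.0-2.0×10^6 cells/ml in 150 ul of RPMI containing 0.5% fetal calf serum. Test compounds, at up to ≤20 uM, were preincubated with the cells for 30 minutes, then phytohemagglutinin (PHA) was added and cultures were stimulated for 24-48 hours at 37 degrees C./5% CO2. Supernatant IL-2 was then quantified by standard ELISA.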

Row | SMILES | IC50 [µM]
52 | O=C(COc1ccccc1-c1ccccc1)N1CCC(CCc2ccc(O)cc2)CC1 [Compound 100] | < 1
53 | COC(=O)c1ccc(CCC2CCN(C(=O)COc3ccccc3-c3ccccc3)CC2)cc1 [Compound 101] | < 1
54 | O=C(COc1ccccc1-c1ccccc1)N1CCC(CCc2ccc3c(c2)OCO3)CC1 [Compound 105] | < 1
55 | O=C(/C=C/c1cc2c(cc1-c1ccccc1)OCO2)N1CCC(CCc2ccc(O)cc2)CC1 [Compound 111] | 1 to 10
56 | O=C(COc1ccccc1-c1ccccc1)N1CCC(CCc2ccc3c(c2)OCCO3)CC1 [Compound 114] | < 1
57 | O=C(COc1ccccc1-c1ccccc1)N1CCC(CCc2ccccc2)CC1 [Compound 118] | 1 to 10
58 | O=C(COc1ccccc1-c1ccccc1)N1CCC(CCc2cc(F)c(O)c(F)c2)CC1 [Compound 124] | < 1

Continued, values first:

Row | IC50 [µM] | SMILES
59 | 1 to 10 | COc1ccc(CCC2CCN(C(=O)COc3cccnc3-c3ccccc3)CC2)cc1OC [Compound 141]
60 | 1 to 10 | CC(C)NC(=O)c1ccc(CCC2CCN(C(=O)COc3ccccc3-c3ccccc3)CC2)cc1 [Compound 148]
61 | < 1 | O=C(COc1ccccc1-c1ccccc1O)N1CCC(CCc2ccc3c(c2)OCO3)CC1 [Compound 169]
62 | < 1 | CC(C)Oc1ccc(CCC2CCN(C(=O)COc3ccccc3-c3ccc(C#N)cc3)CC2)cc1 [Compound 430]
63 | < 1 | CC(C)Oc1ccccc1CCC1CCN(C(=O)COc2ccccc2-c2ccc(F)cc2O)CC1 [Compound 431]
64 | < 1 | CC(C)Oc1ccc(CCC2CCN(C(=O)COc3ccccc3-c3ccc(F)cc3O)CC2)cc1 [Compound 432]
65 | < 1 | Cc1nc2cc(-c3ccccc3OCC(=O)N3CCC(CCc4ccc(OC(C)C)cc4)CC3)ccc2[nH]1 [Compound 433]
66 | < 1 | N#Cc1ccc(-c2ccccc2OCC(=O)N2CCC(CCc3cccc(OC(F)F)c3)CC2)cc1 [Compound 434]
67 | < 1 | O=C(COc1ccccc1-c1ccc(F)cc1O)N1CCC(CCc2cccc(OC(F)F)c2)CC1 [Compound 435]
68 | < 1 | N#Cc1ccc(-c2cc(C#N)ccc2OCC(=O)N2CCC(CCc3cccc(OC(F)F)c3)CC2)cc1 [Compound 436]
69 | < 1 | N#Cc1ccc(OCC(=O)N2CCC(CCc3cccc(OC(F)F)c3)CC2)c(-c2ccc(F)cc2O)c1 [Compound 437]
70 | < 1 | CC(C)Oc1cccc(CCC2CCN(C(=O)COc3ccccc3-c3cc(C#N)ccc3OCc3ccccc3)CC2)c1 [Compound 440]
71 | < 1 | CC(C)Oc1cccc(CCC2CCN(C(=O)COc3ccccc3-c3cc(C#N)ccc3O)CC2)c1 [Compound 441]
72 | < 1 | CC(C)Oc1cccc(CCC2CCN(C(=O)COc3ccccc3-c3ccc(C#N)cc3OCc3ccccc3)CC2)c1 [Compound 442]
73 | < 1 | CC(C)Oc1cccc(CCC2CCN(C(=O)COc3ccccc3-c3ccc(C#N)cc3O)CC2)c1 [Compound 443]
